Data as given in the NIST ThermoML archive (doi:10.1021/je9003959).
± gives the expanded uncertainty stated by the source.

What was measured:
[1] = refractive index (Na D-line) (dimensionless); conditions: 101.33 kPa, Liquid, Standard Abbe refractometry
[2] = 101 kPa, Liquid; for viscosity: Capillary tube (Ostwald / Ubbelohde) method; for speed of sound: Cylindrical cavity resonance method
[3] = xn = mol fraction of the nth substance listed; conditions: 101 kPa, Liquid, x2 = 0; for viscosity: Capillary tube (Ostwald / Ubbelohde) method
[4] = refractive index (Na D-line) (dimensionless); xn = mol fraction of the nth substance listed; conditions: 101 kPa, Liquid, Standard Abbe refractometry, x2 = 0

CCN1CCCC1=O [1-ethyl-2-pyrrolidinone]
Conditions | mass density, [2] [kg/m3] | refractive index, [1] | speed of sound, [2] [m/s] | viscosity, [2] [mPa·s]
293 K | 1000.55 ± 1.8 | 1.46461 ± 0.00077 | 1511.6 ± 2.1 | 2.133 ± 0.027
298 K | 996.24 ± 1.8 | 1.46192 ± 0.00087 | 1492.5 ± 2.1 | 2.022 ± 0.026
303 K | 991.93 ± 1.9 | 1.45791 ± 0.00075 | 1473.3 ± 2.1 | 1.832 ± 0.024
313 K | 983.26 ± 2 | 1.45415 ± 0.00064 | 1435.3 ± 2.1 | 1.621 ± 0.021
323 K | 974.56 ± 2.1 | 1.45147 ± 0.00062 | 1398 ± 2.1 | 1.358 ± 0.018

O [water] + CCN1CCCC1=O
Conditions | mass density, [3] [kg/m3] | refractive index, [4] | viscosity, [3] [mPa·s]
293 K | 998.26 ± 1.2 | 1.33298 ± 0.00044 | 1.009 ± 0.01
298 K | – | 1.33251 ± 0.00045 | 0.9029 ± 0.0094
303 K | – | 1.33191 ± 0.00045 | 0.8133 ± 0.0084
313 K | 992.26 ± 1.3 | 1.33061 ± 0.00046 | 0.6693 ± 0.007
323 K | – | 1.32902 ± 0.00046 | 0.5611 ± 0.0061

Conditions | speed of sound [m/s]
[3], 313 K, Cylindrical cavity resonance method | 1529.1 ± 1.2

O [water]
Conditions | mass density, [2] [kg/m3] | refractive index, [1] | speed of sound, [2] [m/s] | viscosity, [2] [mPa·s]
293 K | 998.26 ± 1.2 | 1.33298 ± 0.00044 | – | 1.009 ± 0.01
298 K | – | 1.33251 ± 0.00045 | – | 0.9029 ± 0.0094
303 K | – | 1.33191 ± 0.00045 | – | 0.8133 ± 0.0084
313 K | 992.26 ± 1.3 | 1.33061 ± 0.00046 | 1529.1 ± 1.2 | 0.6693 ± 0.007
323 K | – | 1.32902 ± 0.00046 | – | 0.5611 ± 0.0061
